Reference: BigSolDB 2.1

## CCC[C@@H]1C[C@@H](C(=O)N[C@@H]([C@H]2O[C@H](SC)[C@H](O)[C@H]3OC(C)(C)O[C@H]32)[C@H](C)Cl)N(C)C1
In acetone, 273.15 K
  solubility (mole fraction): 0.0112
In acetone, 278.15 K
  solubility (mole fraction): 0.0132
In acetone, 283.15 K
  solubility (mole fraction): 0.0164
In acetone, 288.15 K
  solubility (mole fraction): 0.0195
In acetone, 293.15 K
  solubility (mole fraction): 0.024
In acetone, 298.15 K
  solubility (mole fraction): 0.0283
In acetone, 303.15 K
  solubility (mole fraction): 0.0348
In acetone, 308.15 K
  solubility (mole fraction): 0.0425
In acetone, 313.15 K
  solubility (mole fraction): 0.0502
In acetonitrile, 273.15 K
  solubility (mole fraction): 0.0032
In acetonitrile, 278.15 K
  solubility (mole fraction): 0.004
In acetonitrile, 283.15 K
  solubility (mole fraction): 0.005
In acetonitrile, 288.15 K
  solubility (mole fraction): 0.0063
In acetonitrile, 293.15 K
  solubility (mole fraction): 0.0078
In acetonitrile, 298.15 K
  solubility (mole fraction): 0.0098
In acetonitrile, 303.15 K
  solubility (mole fraction): 0.0123
In acetonitrile, 308.15 K
  solubility (mole fraction): 0.0153
In acetonitrile, 313.15 K
  solubility (mole fraction): 0.0189
In ethanol, 273.15 K
  solubility (mole fraction): 0.0146
In ethanol, 278.15 K
  solubility (mole fraction): 0.0179
In ethanol, 283.15 K
  solubility (mole fraction): 0.0208
In ethanol, 288.15 K
  solubility (mole fraction): 0.0243
In ethanol, 293.15 K
  solubility (mole fraction): 0.0292
In ethanol, 298.15 K
  solubility (mole fraction): 0.0352
In ethanol, 303.15 K
  solubility (mole fraction): 0.0423
In ethanol, 308.15 K
  solubility (mole fraction): 0.0506
In ethanol, 313.15 K
  solubility (mole fraction): 0.0594
In ethyl acetate, 273.15 K
  solubility (mole fraction): 0.0075
In ethyl acetate, 278.15 K
  solubility (mole fraction): 0.0093
In ethyl acetate, 283.15 K
  solubility (mole fraction): 0.0114
In ethyl acetate, 288.15 K
  solubility (mole fraction): 0.0143
In ethyl acetate, 293.15 K
  solubility (mole fraction): 0.0175
In ethyl acetate, 298.15 K
  solubility (mole fraction): 0.0215
In ethyl acetate, 303.15 K
  solubility (mole fraction): 0.026
In ethyl acetate, 308.15 K
  solubility (mole fraction): 0.0319
In ethyl acetate, 313.15 K
  solubility (mole fraction): 0.0388
In isobutanol, 273.15 K
  solubility (mole fraction): 0.0139
In isobutanol, 278.15 K
  solubility (mole fraction): 0.0175
In isobutanol, 283.15 K
  solubility (mole fraction): 0.022
In isobutanol, 288.15 K
  solubility (mole fraction): 0.0274
In isobutanol, 293.15 K
  solubility (mole fraction): 0.0334
In isobutanol, 298.15 K
  solubility (mole fraction): 0.0409
In isobutanol, 303.15 K
  solubility (mole fraction): 0.0491
In isobutanol, 308.15 K
  solubility (mole fraction): 0.0584
In isobutanol, 313.15 K
  solubility (mole fraction): 0.0696
In isopropanol, 273.15 K
  solubility (mole fraction): 0.0102
In isopropanol, 278.15 K
  solubility (mole fraction): 0.0124
In isopropanol, 283.15 K
  solubility (mole fraction): 0.0149
In isopropanol, 288.15 K
  solubility (mole fraction): 0.018
In isopropanol, 293.15 K
  solubility (mole fraction): 0.022
In isopropanol, 298.15 K
  solubility (mole fraction): 0.0266
In isopropanol, 303.15 K
  solubility (mole fraction): 0.0324
In isopropanol, 308.15 K
  solubility (mole fraction): 0.0393
In isopropanol, 313.15 K
  solubility (mole fraction): 0.0468
In methanol, 273.15 K
  solubility (mole fraction): 0.0212
In methanol, 278.15 K
  solubility (mole fraction): 0.0255
In methanol, 283.15 K
  solubility (mole fraction): 0.0306
In methanol, 288.15 K
  solubility (mole fraction): 0.0351
In methanol, 293.15 K
  solubility (mole fraction): 0.0408
In methanol, 298.15 K
  solubility (mole fraction): 0.0481
In methanol, 303.15 K
  solubility (mole fraction): 0.0554
In methanol, 308.15 K
  solubility (mole fraction): 0.0651
In methanol, 313.15 K
  solubility (mole fraction): 0.0746
In methyl acetate, 273.15 K
  solubility (mole fraction): 0.0087
In methyl acetate, 278.15 K
  solubility (mole fraction): 0.0102
In methyl acetate, 283.15 K
  solubility (mole fraction): 0.0132
In methyl acetate, 288.15 K
  solubility (mole fraction): 0.0162
In methyl acetate, 293.15 K
  solubility (mole fraction): 0.0198
In methyl acetate, 298.15 K
  solubility (mole fraction): 0.024
In methyl acetate, 303.15 K
  solubility (mole fraction): 0.0293
In methyl acetate, 308.15 K
  solubility (mole fraction): 0.0355
In methyl acetate, 313.15 K
  solubility (mole fraction): 0.042
In n-butanol, 273.15 K
  solubility (mole fraction): 0.0166
In n-butanol, 278.15 K
  solubility (mole fraction): 0.0213
In n-butanol, 283.15 K
  solubility (mole fraction): 0.0272
In n-butanol, 288.15 K
  solubility (mole fraction): 0.0325
In n-butanol, 293.15 K
  solubility (mole fraction): 0.0391
In n-butanol, 298.15 K
  solubility (mole fraction): 0.0478
In n-butanol, 303.15 K
  solubility (mole fraction): 0.0571
In n-butanol, 308.15 K
  solubility (mole fraction): 0.0672
In n-butanol, 313.15 K
  solubility (mole fraction): 0.0794
In n-propanol, 273.15 K
  solubility (mole fraction): 0.015
In n-propanol, 278.15 K
  solubility (mole fraction): 0.0189
In n-propanol, 283.15 K
  solubility (mole fraction): 0.0238
In n-propanol, 288.15 K
  solubility (mole fraction): 0.0294
In n-propanol, 293.15 K
  solubility (mole fraction): 0.0363
In n-propanol, 298.15 K
  solubility (mole fraction): 0.0428
In n-propanol, 303.15 K
  solubility (mole fraction): 0.0529
In n-propanol, 308.15 K
  solubility (mole fraction): 0.0637
In n-propanol, 313.15 K
  solubility (mole fraction): 0.0751
In n-propyl acetate, 273.15 K
  solubility (mole fraction): 0.0065
In n-propyl acetate, 278.15 K
  solubility (mole fraction): 0.008
In n-propyl acetate, 283.15 K
  solubility (mole fraction): 0.0106
In n-propyl acetate, 288.15 K
  solubility (mole fraction): 0.0124
In n-propyl acetate, 293.15 K
  solubility (mole fraction): 0.0152
In n-propyl acetate, 298.15 K
  solubility (mole fraction): 0.0183
In n-propyl acetate, 303.15 K
  solubility (mole fraction): 0.0223
In n-propyl acetate, 308.15 K
  solubility (mole fraction): 0.0283
In n-propyl acetate, 313.15 K
  solubility (mole fraction): 0.0347
In sec-butanol, 273.15 K
  solubility (mole fraction): 0.0229
In sec-butanol, 278.15 K
  solubility (mole fraction): 0.0282
In sec-butanol, 283.15 K
  solubility (mole fraction): 0.0344
In sec-butanol, 288.15 K
  solubility (mole fraction): 0.0413
In sec-butanol, 293.15 K
  solubility (mole fraction): 0.0507
In sec-butanol, 298.15 K
  solubility (mole fraction): 0.0597
In sec-butanol, 303.15 K
  solubility (mole fraction): 0.0709
In sec-butanol, 308.15 K
  solubility (mole fraction): 0.0813
In sec-butanol, 313.15 K
  solubility (mole fraction): 0.0947
